The data set can be described thus: On-resin ring-closing metathesis (C=C) of bis-alkenyl beta-(1,6)-hexaglucosides, Grubbs catalyst 20 mol% per cycle, Ar bubbling. Method B (8a-8d): Grubbs II, MW 60 C, 40 min per cycle, 6 cycles for 8a and 3 for 8b-8d. Method A (8e-8g): Grubbs I, 25 C, 60 min per cycle, 3 cycles. The settings on record: the molecule shown is the open-chain precursor, 16 steps.

Structures are written as SMILES.

Where the note is “28-membered ring, 1,2-dichloroethane, 4.0 h”, `C=CCO[C@@H]1[C@@H](OC(=O)c2ccccc2)[C@H](OC[C@H]2O[C@@H](OC[C@H]3O[C@@H](OC[C@H]4O[C@@H](OC[C@H]5O[C@@H](OC[C@H]6O[C@@H](OCCCCCN(Cc7ccc(OC)cc7[N+](=O)[O-])C(=O)OCc7ccccc7)[C@H](OC(=O)c7ccccc7)[C@@H](OC(=O)c7ccccc7)[C@@H]6OCc6ccccc6)[C@H](OC(=O)c6ccccc6)[C@@H](OCc6ccccc6)[C@@H]5OCC=C)[C@H](OC(=O)c5ccccc5)[C@@H](OC(=O)c5ccccc5)[C@@H]4OCc4ccccc4)[C@H](OC(=O)c4ccccc4)[C@@H](OC(=O)c4ccccc4)[C@@H]3OCc3ccccc3)[C@H](OC(=O)c3ccccc3)[C@@H](OC(=O)c3ccccc3)[C@@H]2OCc2ccccc2)O[C@H](CO)[C@H]1OCc1ccccc1` [8a (from 5a, -(CH2)4-)] displayed a ring closure, overall yield of 12%.
The compound `C=CCCO[C@@H]1[C@@H](OC(=O)c2ccccc2)[C@H](OC[C@H]2O[C@@H](OC[C@H]3O[C@@H](OC[C@H]4O[C@@H](OC[C@H]5O[C@@H](OC[C@H]6O[C@@H](OCCCCCN(Cc7ccc(OC)cc7[N+](=O)[O-])C(=O)OCc7ccccc7)[C@H](OC(=O)c7ccccc7)[C@@H](OC(=O)c7ccccc7)[C@@H]6OCc6ccccc6)[C@H](OC(=O)c6ccccc6)[C@@H](OCc6ccccc6)[C@@H]5OCC=C)[C@H](OC(=O)c5ccccc5)[C@@H](OC(=O)c5ccccc5)[C@@H]4OCc4ccccc4)[C@H](OC(=O)c4ccccc4)[C@@H](OC(=O)c4ccccc4)[C@@H]3OCc3ccccc3)[C@H](OC(=O)c3ccccc3)[C@@H](OC(=O)c3ccccc3)[C@@H]2OCc2ccccc2)O[C@H](CO)[C@H]1OCc1ccccc1` [8b (from 5b, -(CH2)5-)] returned a ring closure, overall yield (29-membered ring, 1,2-dichloroethane, 2.0 h) of 10%.
Consider `C=CCCCO[C@@H]1[C@@H](OC(=O)c2ccccc2)[C@H](OC[C@H]2O[C@@H](OC[C@H]3O[C@@H](OC[C@H]4O[C@@H](OC[C@H]5O[C@@H](OC[C@H]6O[C@@H](OCCCCCN(Cc7ccc(OC)cc7[N+](=O)[O-])C(=O)OCc7ccccc7)[C@H](OC(=O)c7ccccc7)[C@@H](OC(=O)c7ccccc7)[C@@H]6OCc6ccccc6)[C@H](OC(=O)c6ccccc6)[C@@H](OCc6ccccc6)[C@@H]5OCC=C)[C@H](OC(=O)c5ccccc5)[C@@H](OC(=O)c5ccccc5)[C@@H]4OCc4ccccc4)[C@H](OC(=O)c4ccccc4)[C@@H](OC(=O)c4ccccc4)[C@@H]3OCc3ccccc3)[C@H](OC(=O)c3ccccc3)[C@@H](OC(=O)c3ccccc3)[C@@H]2OCc2ccccc2)O[C@H](CO)[C@H]1OCc1ccccc1` [8c (from 5c, -(CH2)6-)], for which the ring closure, overall yield (30-membered ring, 1,2-dichloroethane, 2.0 h) worked out at 15%.
With `C=CCCCCO[C@@H]1[C@@H](OC(=O)c2ccccc2)[C@H](OC[C@H]2O[C@@H](OC[C@H]3O[C@@H](OC[C@H]4O[C@@H](OC[C@H]5O[C@@H](OC[C@H]6O[C@@H](OCCCCCN(Cc7ccc(OC)cc7[N+](=O)[O-])C(=O)OCc7ccccc7)[C@H](OC(=O)c7ccccc7)[C@@H](OC(=O)c7ccccc7)[C@@H]6OCc6ccccc6)[C@H](OC(=O)c6ccccc6)[C@@H](OCc6ccccc6)[C@@H]5OCC=C)[C@H](OC(=O)c5ccccc5)[C@@H](OC(=O)c5ccccc5)[C@@H]4OCc4ccccc4)[C@H](OC(=O)c4ccccc4)[C@@H](OC(=O)c4ccccc4)[C@@H]3OCc3ccccc3)[C@H](OC(=O)c3ccccc3)[C@@H](OC(=O)c3ccccc3)[C@@H]2OCc2ccccc2)O[C@H](CO)[C@H]1OCc1ccccc1` [8d (from 5d, -(CH2)7-)], for the setting “31-membered ring, 1,2-dichloroethane, 2.0 h”, the ring closure, overall yield is 13%.
Compound `C=CCCCCO[C@H]1[C@H](OCc2ccccc2)[C@@H](OC(=O)c2ccccc2)[C@H](OC[C@H]2O[C@@H](OCCCCCN(Cc3ccc(OC)cc3[N+](=O)[O-])C(=O)OCc3ccccc3)[C@H](OC(=O)c3ccccc3)[C@@H](OC(=O)c3ccccc3)[C@@H]2OCc2ccccc2)O[C@@H]1CO[C@@H]1O[C@H](CO[C@@H]2O[C@H](CO[C@@H]3O[C@H](CO[C@@H]4O[C@H](CO)[C@@H](OCc5ccccc5)[C@H](OCCC=C)[C@H]4OC(=O)c4ccccc4)[C@@H](OCc4ccccc4)[C@H](OC(=O)c4ccccc4)[C@H]3OC(=O)c3ccccc3)[C@@H](OCc3ccccc3)[C@H](OC(=O)c3ccccc3)[C@H]2OC(=O)c2ccccc2)[C@@H](OCc2ccccc2)[C@H](OC(=O)c2ccccc2)[C@H]1OC(=O)c1ccccc1` [8e (from 5e, -(CH2)8-)] registered a ring closure, overall yield (32-membered ring, 1,2-dichloroethane, 3.0 h) of 15%.
`C=CCCCCO[C@H]1[C@H](OCc2ccccc2)[C@@H](OC(=O)c2ccccc2)[C@H](OC[C@H]2O[C@@H](OCCCCCN(Cc3ccc(OC)cc3[N+](=O)[O-])C(=O)OCc3ccccc3)[C@H](OC(=O)c3ccccc3)[C@@H](OC(=O)c3ccccc3)[C@@H]2OCc2ccccc2)O[C@@H]1CO[C@@H]1O[C@H](CO[C@@H]2O[C@H](CO[C@@H]3O[C@H](CO[C@@H]4O[C@H](CO)[C@@H](OCc5ccccc5)[C@H](OCCCC=C)[C@H]4OC(=O)c4ccccc4)[C@@H](OCc4ccccc4)[C@H](OC(=O)c4ccccc4)[C@H]3OC(=O)c3ccccc3)[C@@H](OCc3ccccc3)[C@H](OC(=O)c3ccccc3)[C@H]2OC(=O)c2ccccc2)[C@@H](OCc2ccccc2)[C@H](OC(=O)c2ccccc2)[C@H]1OC(=O)c1ccccc1` [8f (from 5f, -(CH2)9-)]: the ring closure, overall yield (33-membered ring, 1,2-dichloroethane, 3.0 h) was 14%.
`C=CCCCCO[C@@H]1[C@@H](OC(=O)c2ccccc2)[C@H](OC[C@H]2O[C@@H](OC[C@H]3O[C@@H](OC[C@H]4O[C@@H](OC[C@H]5O[C@@H](OC[C@H]6O[C@@H](OCCCCCN(Cc7ccc(OC)cc7[N+](=O)[O-])C(=O)OCc7ccccc7)[C@H](OC(=O)c7ccccc7)[C@@H](OC(=O)c7ccccc7)[C@@H]6OCc6ccccc6)[C@H](OC(=O)c6ccccc6)[C@@H](OCc6ccccc6)[C@@H]5OCCCCC=C)[C@H](OC(=O)c5ccccc5)[C@@H](OC(=O)c5ccccc5)[C@@H]4OCc4ccccc4)[C@H](OC(=O)c4ccccc4)[C@@H](OC(=O)c4ccccc4)[C@@H]3OCc3ccccc3)[C@H](OC(=O)c3ccccc3)[C@@H](OC(=O)c3ccccc3)[C@@H]2OCc2ccccc2)O[C@H](CO)[C@H]1OCc1ccccc1` [8g (from 5g, -(CH2)10-)] displayed a ring closure, overall yield (34-membered ring, 1,2-dichloroethane, 3.0 h) of 17%.

These data come from PMC9562281.
